This is an account of results in patent US20240415826A1, “[…] OF A GENE ENCODING AN […] BY TREATING A HUMAN SUBJECT WITH A NITROXIDE” (priority 2021, published 2024).

Test [1] has as its system UCP2. As to the kind of experiment: Effects of Tempol on gene expression in cardiac tissue of mice, chip-based microarray. In kind it is in vivo. Particulars: 5 mg/g of food from 14 to 31 months after birth. The protocol:
To assess the effects of Tempol on gene expression, Tempol was administered to experimental mice at a dose of 5 mg/g of food from 14 months to 31 months after birth. Mice receiving the same food without the addition of Tempol were used as a negative control. At the age of 31 months, the experimental animals were sacrificed and the hearts were surgically removed. The expression of a broad spectrum of genes in the cardiac tissue was assessed using chip-based microarray technology. Such chips are well known in the art and are widely used to assess gene expression.

In test [2] the test system is UCP2. As to the kind of experiment: Treating a human subject with Tempol, serum level of UCP2 following treatment. In kind it is in vivo. To be noted: 2000 mg per day for 180 days. The protocol: (§1) A 70-kilogram human subject over the age of 65 is identified as having, or known to have, or suspected of having an increased expression level of UCP2. The human subject is administered a dose of 2000 mg of Tempol (or another nitroxide antioxidant) per day for 180 days. This may be administered in a single dose, or may be administered as a number of smaller doses over a 24-hour period: for example, four 500-mg doses at […]. Following treatment, the serum level of UCP2, is decreased.
A 70-kilogram human subject is identified as having, or known to have, or suspected of having an increased expression level of UCP2. The human subject is administered a dose of 2000 mg of Tempol (or another nitroxide antioxidant) per day for 180 days. This may be administered in a single dose, or may be administered as a number of smaller doses over a 24-hour period: for example, four 500-mg doses at […]. Following treatment, the serum level of UCP2, is decreased.
as §1, with “65 and having a cardiovascular disease” for “65”, “for an increased expression level of UCP2. Or a 70-kilogram human subject over the age of 65 is” for “as having, or”, “have a cardiovascular disease and/or” for “have, or suspected of having an”
(§2) A 70-kilogram human subject at risk of developing colorectal cancer is identified for increased expression level of UCP2. Or a 70-kilogram human subject is known to be at risk of developing colorectal cancer and/or have increased expression level of UCP2. The human subject is administered a dose of 2000 mg of Tempol (or another nitroxide antioxidant) per day for 180 days. This may be administered in a single dose, or may be administered as a number of smaller doses over a 24-hour period: for example, four 500-mg doses at […]. Following treatment, the serum level of UCP2, is decreased.
as §2, with “of developing an autoimmune disease (e.g., rheumatoid arthritis) is identified” for “of developing colorectal cancer is identified”, “of developing an autoimmune disease and/or have” for “of developing colorectal cancer and/or have”
A 70-kilogram human subject of person at risk of developing a condition due to aging is identified. Or a 70-kilogram human subject of person is known to be at risk of developing a condition. The human subject is administered a dose of 2000 mg of Tempol (or another nitroxide antioxidant) per day for 180 days. This may be administered in a single dose, or may be administered as a number of smaller doses over a 24-hour period: for example, four 500-mg doses at […]. Following treatment, the serum level of UCP2, is decreased.
A 70-kilogram human subject at risk of developing a neurodegenerative disease (e.g., Parkinson's Disease) is identified for increased expression level of UCP2. Or a 70-kilogram human subject is known to be at risk of developing a neurodegenerative disease and/or have increased expression level of UCP2. The human subject is administered a dose of 2000 mg of Tempol (or another nitroxide antioxidant) per day for 180 days. […]

For the compound `CC1(C)CC(O)CC(C)(C)N1[O]` [Tempol, 4-hydroxy-2,2,6,6-tetramethylpiperidine-1-oxyl], the “Fold change (UCP2 expression in cardiac tissue after Tempol administration)” value in test [1] (hearts at 31 months, vs. same food without Tempol, P-value 0.012) is −1.61. The “UCP2 expression in cardiac tissue (result in words)” value in test [1] (microarray) is on record as “statistically significant decrease in expression”. The “serum level of UCP2 following treatment” value in test [2] (Example 2: 70-kilogram human subject over the age of 65 with increased UCP2 expression), in test [2] (Example 3: 70-kilogram human subject with increased UCP2 expression), in test [2] (Example 4: human subject over the age of 65 having a cardiovascular disease), in test [2] (Example 5: human subject at risk of developing colorectal cancer), in test [2] (Example 6: human subject at risk of developing an autoimmune disease) and in test [2] (Example 7: human subject at risk of developing a condition due to aging) was “decreased” each time. Moreover, the “serum level of UCP2 following treatment” value in test [2] (Example 8: human subject at risk of developing a neurodegenerative disease) and in test [2] (Example 9: human subject having an infection) was “decreased” each time.
